Experimental data published in patent US8598365B2, “Herbicides” (Syngenta Limited, priority 2007, dated 2013).

Columns and labels:
Assay type in all cases: in vivo
[1] = tested on: Echinochloa crus-galli (ECHCG); assay: Example A post-emergence herbicidal activity; details: rate 125 g/ha, evaluated 14 or 15 days later
Description: (§1) Seeds of a variety of test species were sown in standard soil in pots. After cultivation for one day (pre-emergence) or after 10 days cultivation (post-emergence) under controlled conditions in a glasshouse, the plants were sprayed with an aqueous spray solution derived from the formulation of the technical active ingredient in 0.6 ml acetone and 45 ml formulation solution containing 10.6% Emulsogen EL (Registry number 61791-12-6), 42.2% N-methylpyrrolidone, 42.2% dipropylene glycol monomethyl ether (Registry number 34590-94-8) and 0.2% X-77 (Registry number 11097-66-8). The test plants were then grown in a greenhouse under optimum conditions until, 14 or 15 days later for post-emergence and 19 or 20 days for pre-emergence, the test was evaluated (100=total damage to plant; 0=no damage to plant). Alopecurus myosuroides (ALOMY), Avena fatua (AVEFA), Lolium perenne (LOLPE), Setaria faberi (SETFA), Digitaria sanguinalis (DIGSA), Echinochloa crus-galli (ECHCG)

Lolium perenne (LOLPE) [2] = assay: Example A post-emergence herbicidal activity; details: rate 125 g/ha, evaluated 14 or 15 days later
Description: as §1

Avena fatua (AVEFA) [3] = assay: Example A post-emergence herbicidal activity; details: rate 125 g/ha, evaluated 14 or 15 days later
Description: as §1

Setaria faberi (SETFA) [4] = assay: Example A post-emergence herbicidal activity; details: rate 125 g/ha, evaluated 14 or 15 days later
Description: as §1

[5] = tested on: Alopecurus myosuroides (ALOMY); assay: Example A post-emergence herbicidal activity; details: rate 125 g/ha, evaluated 14 or 15 days later
Description: as §1

[6] = tested on: Digitaria sanguinalis (DIGSA); assay: Example A post-emergence herbicidal activity; details: rate 125 g/ha, evaluated 14 or 15 days later
Description: as §1

[7] = tested on: Echinochloa crus-galli (ECHCG); assay: Example A pre-emergence herbicidal activity; details: rate 250 g/ha, evaluated 19 or 20 days later
Description: as §1

Lolium perenne (LOLPE) [8] = assay: Example A pre-emergence herbicidal activity; details: rate 250 g/ha, evaluated 19 or 20 days later
Description: as §1

Avena fatua (AVEFA) [9] = assay: Example A pre-emergence herbicidal activity; details: rate 250 g/ha, evaluated 19 or 20 days later
Description: as §1

Setaria faberi (SETFA) [10] = assay: Example A pre-emergence herbicidal activity; details: rate 250 g/ha, evaluated 19 or 20 days later
Description: as §1

[11] = tested on: Alopecurus myosuroides (ALOMY); assay: Example A pre-emergence herbicidal activity; details: rate 250 g/ha, evaluated 19 or 20 days later
Description: as §1

[12] = tested on: Digitaria sanguinalis (DIGSA); assay: Example A pre-emergence herbicidal activity; details: rate 250 g/ha, evaluated 19 or 20 days later
Description: as §1

SMILES | Post-Emergence Activity ECHCG (100=total damage to plant; 0=no damage to plant) [1] | Post-Emergence Activity LOLPE (100=total damage to plant; 0=no damage to plant) (Lolium perenne (LOLPE) [2]) | Post-Emergence Activity AVEFA (100=total damage to plant; 0=no damage to plant) (Avena fatua (AVEFA) [3]) | Post-Emergence Activity SETFA (100=total damage to plant; 0=no damage to plant) (Setaria faberi (SETFA) [4]) | Post-Emergence Activity ALOMY (100=total damage to plant; 0=no damage to plant) [5] | Post-Emergence Activity DIGSA (100=total damage to plant; 0=no damage to plant) [6] | Pre-Emergence Activity ECHCG (100=total damage to plant; 0=no damage to plant) [7] | Pre-Emergence Activity LOLPE (100=total damage to plant; 0=no damage to plant) (Lolium perenne (LOLPE) [8]) | Pre-Emergence Activity AVEFA (100=total damage to plant; 0=no damage to plant) (Avena fatua (AVEFA) [9]) | Pre-Emergence Activity SETFA (100=total damage to plant; 0=no damage to plant) (Setaria faberi (SETFA) [10]) | Pre-Emergence Activity ALOMY (100=total damage to plant; 0=no damage to plant) [11] | Pre-Emergence Activity DIGSA (100=total damage to plant; 0=no damage to plant) [12]
COc1ccc(-c2nc(C3C(=O)[C@@H]4CC[C@@H](C4)C3=O)c(C)s2)cn1 (some centres unmarked) [Compound T18] | 50 | 20 | 30 | 60 | 40 | 60 | 20 | 0 | 0 | 20 | 0 | 30
Cc1sc(-c2ccc(Cl)cc2)nc1C1C(=O)[C@@H]2CC[C@@H](C2)C1=O (some centres unmarked) [Compound T17] | 90 | 40 | 50 | 80 | 70 | 80 | 100 | 100 | 100 | 100 | 100 | 100
CCc1sc(-c2ccc(Cl)cc2)nc1C1C(=O)[C@@H]2CC[C@@H](C2)C1=O (some centres unmarked) [Compound T19, 3-[2-(4-chlorophenyl)-5-ethylthiazol-4-yl]bicyclo[3.2.1]octane-2,4-dione] | 100 | 80 | 100 | 100 | 100 | 100 | 100 | 100 | 100 | 100 | 100 | 100
Cc1sc(-c2ccc(Br)cc2)nc1C1C(=O)[C@@H]2CC[C@@H](C2)C1=O (some centres unmarked) [Compound T15] | 70 | 50 | 90 | 100 | 90 | 100 | 100 | 100 |  | 100 | 90 | 100
Cc1[se]c(-c2ccc(Cl)cc2)nc1C1C(=O)[C@@H]2CC[C@@H](C2)C1=O (some centres unmarked) [Compound T1, 3-[2-(4-chlorophenyl)-5-methylselenazol-4-yl]bicyclo[3.2.1]octane-2,4-dione] | 100 | 30 | 70 | 90 | 70 | 80 | 60 | 80 | 20 | 70 | 60 | 60
Cc1sc(-c2ccc(Cl)cc2)cc1C1C(=O)[C@@H]2CC[C@@H](C2)C1=O (some centres unmarked) [Compound T23] | 90 | 70 | 70 | 100 | 80 | 90 | 0 | 0 | 50 | 0 | 30 | 0
Cc1sc(-c2ccc(Cl)nc2)nc1C1C(=O)[C@@H]2CC[C@@H](C2)C1=O (some centres unmarked) [Compound T16] | 50 | 20 | 40 | 60 | 20 | 70 | 70 | 20 | 20 | 80 | 10 | 80
